T1: hAQP1 (Homo sapiens, UniProt P29972)
T1 construct: made in house; host or cells: Spodoptera frugiperda (Sf9) insect cells, baculovirus vector pFB-LIC-Bse
T1 sequence (P29972 1-269): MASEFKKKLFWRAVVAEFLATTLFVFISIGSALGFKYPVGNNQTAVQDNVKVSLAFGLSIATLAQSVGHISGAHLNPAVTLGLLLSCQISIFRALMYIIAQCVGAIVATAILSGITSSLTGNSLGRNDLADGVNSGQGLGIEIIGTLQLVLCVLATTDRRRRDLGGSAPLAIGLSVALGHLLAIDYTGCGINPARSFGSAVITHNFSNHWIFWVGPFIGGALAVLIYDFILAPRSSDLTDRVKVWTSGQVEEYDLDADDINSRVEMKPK

B1: human aquaporin 1 (6His-TEV-hAQP1) (natural protein, UniProt P29972 1-269, looked up)
chain: T1 sequence (P29972 1-269)
notes: human aquaporin 1, full-length cDNA cloned in pFB-LIC-Bse downstream of an N-terminal 6His and TEV protease cleavage site; No TEV cleavage is described; An octamer band is also assigned in BN-PAGE; also called recombinant hAQP1; source: Sf9 (Spodoptera frugiperda) insect cells, purified (Ni-NTA, gel filtration) in n-octyl-β-D-glucopyranoside

Tests used:
human red blood cells = system: human red blood cells; parameters: method as in PMID 26028295; details: cited from earlier work
hAQP1 = biological target: T1, hAQP1; parameters: method as in PMID 26028295; details: 30 µM; cited from earlier work
[1] = biological target: the molecule itself; assay: native gel or EMSA; blue-native PAGE (4%-16% Bis-Tris gel, 4 °C) of purified protein in sample buffer with 100 mM OG, 750 mM aminocaproic acid, 50 mM Bis-Tris HCl pH 7.0, 0.5 mM EDTA
[2] = biological target: the molecule itself; assay: SEC; gel filtration on HiLoad 16/600 Superdex 200 prep grade at 4 °C; 20 mM Tris-HCl pH 8, 300 mM NaCl, 1% OG; major peak at 70 mL

| Molecule | overall amplitude of the traces (human red blood cells) | rate constant in the RBC assays (human red blood cells) | stabilization of hAQP1 (hAQP1) [°C] | stoichiometry N [1] | stoichiometry N [2] |
| --- | --- | --- | --- | --- | --- |
| O=[N+]([O-])c1ccc2c(c1)/C(=N/N=C1c3ccccc3Cc3ccccc31)c1cc([N+](=O)[O-])cc([N+](=O)[O-])c1-2 [NSC658139] | strong reduction in overall amplitude | did not reduce the rate constant | ≤ 13 |  |  |
| B1 |  |  |  | 8 | 4 |

— paper PMC4848905, “Fragment Screening of Human Aquaporin 1” (International Journal of Molecular Sciences, 2016)
